Consider 19 molecules from patent US8778964B2, “Hydroxy-substituted imidazo[1,2-a]-pyridinecarboxamides and their use” (Bayer Pharma Aktiengesellschaft, priority 2012, dated 2014).

Molecules are shown by their SMILES.

In the assay the test system is recombinant guanylate cyclase reporter cell line. Briefly: Action on recombinant guanylate cyclase reporter cell line (MEC). Conditions: in some cases mean values obtained from individual determinations. In kind it is cell-based. Here is the method:
B-2. Action on Recombinant Guanylate Cyclase Reporter Cell Line
The cellular action of the compounds according to the invention is determined on a recombinant guanylate cyclase reporter cell line, as described in F. Wunder et al., Anal. Biochem. 339, 104-112 (2005).
Representative values (MEC=minimal effective concentration) for the compounds according to the invention are shown in the following table (in some cases as mean values obtained from individual determinations): […]

The minimal effective concentration is the lowest level tested that produced the effect sought. For `CCC(O)CNC(=O)c1c(C)nc2c(OCCC(C(F)(F)F)C(F)(F)F)cc(C)cn12` (racemic) [Example 174, rac-N-(2-hydroxybutyl)-2,6-dimethyl-8-[4,4,4-trifluoro-3-(trifluoromethyl)butoxy]imidazo[1,2-a]pyridine-3-carboxamide], the minimal effective concentration is 3 µM.
For the molecule `Cc1cc(OCCC(C(F)(F)F)C(F)(F)F)c2nc(C)c(C(=O)NCC(O)c3ccc(Cl)cc3)n2c1` (racemic) [Example 175, rac-N-[2-(4-chlorophenyl)-2-hydroxyethyl]-2,6-dimethyl-8-[4,4,4-trifluoro-3-(trifluoromethyl)butoxy]imidazo[1,2-a]pyridine-3-carboxamide], the minimal effective concentration was 3 µM.
The result for `Cc1cc(OCC2CC(F)(F)C2)c2nc(C)c(C(=O)NC(CCCC(F)(F)F)C(C)(C)O)n2c1` (racemic) [Example 176, rac-8-[(3,3-Difluorocyclobutyl)methoxy]-2,6-dimethyl-N-(7,7,7-trifluoro-2-hydroxy-2-methylheptan-3-yl)imidazo[1,2-a]pyridine-3-carboxamide] reads 3 µM.
Consider `Cc1nc2c(OCC3CCCCC3)cccn2c1C(=O)N[C@@H]1CCC[C@@H]1O` (relative stereo) [Example 81, 8-(cyclohexylmethoxy)-N-[cis-2-hydroxycyclopentyl]-2-methylimidazo[1,2-a]-pyridine-3-carboxamide], for which the minimal effective concentration stood at 0.65 µM.
Take `Cc1nc2c(OCc3c(F)cccc3F)cccn2c1C(=O)NC(CO)CCC(O)C(F)(F)F` (single isomer, unassigned) [Example 138, 8-[(2,6-Difluorobenzyl)oxy]-2-methyl-N-(6,6,6-trifluoro-1,5-dihydroxyhexan-2-yl)imidazo[1,2-a]-pyridine-3-carboxamide]: the minimal effective concentration is 0.1 µM.
The result for `Cc1nc2c(OCc3c(F)cccc3F)cccn2c1C(=O)NC(C)C(O)C(F)(F)F` (single isomer, unassigned) [Example 143, 8-[(2,6-Difluorobenzyl)oxy]-2-methyl-N-(4,4,4-trifluoro-3-hydroxybutan-2-yl)imidazo[1,2-a]-pyridine-3-carboxamide] reads 0.03 µM.
The result for `Cc1nc2c(OCc3c(F)cccc3F)cccn2c1C(=O)NC(C)C(O)C(F)(F)F` (single isomer, unassigned) [Example 144, 8-[(2,6-Difluorobenzyl)oxy]-2-methyl-N-(4,4,4-trifluoro-3-hydroxybutan-2-yl)imidazo[1,2-a]-pyridine-3-carboxamide] reads 0.3 µM; that for `Cc1nc2c(OCc3c(F)cccc3F)cccn2c1C(=O)NC(C)C(O)C(F)(F)F` (single isomer, unassigned) [Example 145, 8-[(2,6-Difluorobenzyl)oxy]-2-methyl-N-(4,4,4-trifluoro-3-hydroxybutan-2-yl)imidazo[1,2-a]-pyridine-3-carboxamide], over 10 µM.
Then `Cc1nc2c(OCc3c(F)cccc3F)cccn2c1C(=O)NC(C)C(O)C(F)(F)F` (single isomer, unassigned) [Example 146, 8-[(2,6-Difluorobenzyl)oxy]-2-methyl-N-(4,4,4-trifluoro-3-hydroxybutan-2-yl)imidazo[1,2-a]-pyridine-3-carboxamide], with 1.0 µM; and `Cc1cc(OCCC(C)C)c2nc(C)c(C(=O)NC(CCCC(F)(F)F)C(C)(C)O)n2c1` (single isomer, unassigned; ent-2) [Example 168, ent-2,6-Dimethyl-8-(3-methylbutoxy)-N-(7,7,7-trifluoro-2-hydroxy-2-methylheptan-3-yl)imidazo-[1,2-a]pyridine-3-carboxamide], with 3 µM.
In the case of `Cc1nc2c(OCc3c(F)cccc3F)cccn2c1C(=O)NC(CO)c1ccc(F)cc1` (single isomer, unassigned; ent-8) [Example 107, ent-8-[(2,6-Difluorobenzyl)oxy]-N-[1-(4-fluorophenyl)-2-hydroxyethyl]-2-methylimidazo[1,2-a]-pyridine-3-carboxamide], the minimal effective concentration is 0.1 µM.
Turning to `Cc1nc2c(OCc3c(F)cccc3F)cccn2c1C(=O)NCC(O)C(F)(F)F` (single isomer, unassigned; ent-8) [Example 109, ent-8-[(2,6-Difluorobenzyl)oxy]-2-methyl-N-(3,3,3-trifluoro-2-hydroxypropyl)imidazo[1,2-a]-pyridine-3-carboxamide], the minimal effective concentration came out at 0.1 µM.
Then `Cc1nc2c(OCc3c(F)cccc3F)cccn2c1C(=O)NC(CO)CC(F)(F)F` (single isomer, unassigned; ent-8) [Example 121, ent-8-[(2,6-Difluorobenzyl)oxy]-2-methyl-N-(4,4,4-trifluoro-1-hydroxybutan-2-yl)imidazo[1,2-a]-pyridine-3-carboxamide], with 0.03 µM; and `Cc1nc2c(OCc3c(F)cccc3F)cccn2c1C(=O)NC(CO)CCC(F)(F)F` (single isomer, unassigned; ent-8) [Example 122, ent-8-[(2,6-Difluorobenzyl)oxy]-2-methyl-N-(5,5,5-trifluoro-1-hydroxypentan-2-yl)imidazo[1,2-a]-pyridine-3-carboxamide], with 0.03 µM; and `Cc1nc2c(OCc3c(F)cccc3F)cccn2c1C(=O)NC(CO)CCCC(F)(F)F` (single isomer, unassigned; ent-8) [Example 123, ent-8-[(2,6-Difluorobenzyl)oxy]-2-methyl-N-(6,6,6-trifluoro-1-hydroxyhexan-2-yl)imidazo[1,2-a]-pyridine-3-carboxamide], with 0.03 µM.
The result for `Cc1nc2c(OCc3c(F)cccc3F)cccn2c1C(=O)NC(CC(F)(F)F)C(C)(C)O` (single isomer, unassigned; ent-8) [Example 154, ent-8-[(2,6-Difluorobenzyl)oxy]-2-methyl-N-(1,1,1-trifluoro-4-hydroxy-4-methylpentan-3-yl)-imidazo[1,2-a]pyridine-3-carboxamide (enantiomer B)] reads 0.03 µM; that for `Cc1nc2c(OCc3c(F)cccc3F)cccn2c1C(=O)NC(CCC(F)(F)F)C(C)(C)O` (single isomer, unassigned; ent-8) [Example 155, ent-8-[(2,6-Difluorobenzyl)oxy]-2-methyl-N-(6,6,6-trifluoro-2-hydroxy-2-methylhexan-3-yl)-imidazo[1,2-a]pyridine-3-carboxamide (enantiomer B)], 0.1 µM; that for `Cc1nc2c(OCc3c(F)cccc3F)cccn2c1C(=O)NC(CCCC(F)(F)F)C(C)(C)O` (single isomer, unassigned; ent-8) [Example 156, ent-8-[(2,6-Difluorobenzyl)oxy]-2-methyl-N-(7,7,7-trifluoro-2-hydroxy-2-methylheptan-3-yl)-imidazo[1,2-a]pyridine-3-carboxamide (enantiomer B)], 0.03 µM.
Then `CCOCC(CO)NC(=O)c1c(C)nc2c(OCc3c(F)cccc3F)cccn12` (single isomer, unassigned; ent-8) [Example 161, ent-8-[(2,6-Difluorobenzyl)oxy]-N-(1-ethoxy-3-hydroxypropan-2-yl)-2-methylimidazo[1,2-a]-pyridine-3-carboxamide (enantiomer A)], with 1 µM.
